The values below come from patent US7422846B2, “Natural ligand for orphan G protein coupled receptor GPR86 and methods of use” (Euroscreen S.A, priority 2001, dated 2008).

The target in one assay is T1, human P2Y13 (GPR86) (Homo sapiens, UniProt Q9BPV8, T179M).
T1 construct: expressed in transfected cells; host or cells: 1321N1 astrocytoma clone AG32 (stably expressing Gα16 from pERAEQ2), G418-selected
T1 sequence (Q9BPV8 22-354 T179M): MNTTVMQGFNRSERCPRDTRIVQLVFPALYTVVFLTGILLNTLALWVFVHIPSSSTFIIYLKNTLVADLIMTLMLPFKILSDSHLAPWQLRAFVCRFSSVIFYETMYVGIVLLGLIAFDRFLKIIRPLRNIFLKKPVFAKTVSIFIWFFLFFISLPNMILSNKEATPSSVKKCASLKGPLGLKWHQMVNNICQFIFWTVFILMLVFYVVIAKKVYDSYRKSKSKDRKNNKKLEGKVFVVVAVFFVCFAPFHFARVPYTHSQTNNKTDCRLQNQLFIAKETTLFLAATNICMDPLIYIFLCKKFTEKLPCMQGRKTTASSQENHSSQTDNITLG
In words: Antagonism of ADP-induced IP3 accumulation in human P2Y13-AG32 cells. Type of assay: cell-based. The conditions noted are these: 10 min pre-incubation, then ADP 100 nM for 30 s; means±S.D. of three independent experiments. On the procedure:
Antagonist were tested on AG32 cells transfected with human GPR86. AG32 cells were seeded (200,000 cells per dish) on 35 mm (diameter) Petri dishes and labeled for 24 h with 5 μCi/ml [^3H]-myoinositol in inositol free DMEM containing 5% fetal calf serum, antibiotics, amphotericin, sodium pyruvate, and 400 μg/ml of G418. […] Prior to the stimulation, cells were pre-incubated for 10 min in presence of Reactive Blue 2 (RB-2), Suramine, PPADS or MRS-2179. The cells were then incubated in presence of ADP 100 nM for 30 s. The incubation was stopped by the addition of 1 ml of an ice-cold 3% perchloric acid solution. […] The data represent the mean±S.D. of triplicate experimental points obtained in one representative experiment of three.

The subject of assay [1] is 1321N1 cells expressing GPR86 receptor alone. The conditions noted are these: nucleotides 100 μM for 30 s.
Protocol: Cells of the invention, for example, 1321N1 cells, are labelled for 24 hours with 10 μCi/ml [^3H] inositol in inositol free DMEM containing 5% FCS, antibiotics, amphotericin, sodium pyruvate and 400 μg/ml G418. Cells are incubated for 2 h in Krebs-Ringer Hepes (KRH) buffer of the following composition (124 mM NaCl, 5 mM KCl, 1.25 mM MgSO4, 1.45 mM CaCl2, 1.25 mM KH2PO4, 25 mM Hepes (pH: 7.4) and 8 mM glucose). The cells are then challenged with various nucleotides for 30 s. The incubation is stopped by the addition of an ice cold 3% perchloric acid solution. IP are extracted and separated on Dowex columns as previously described (25). 2MeSATP and ATP solutions (1 mM) are treated at room temperature with 20 units/ml CPK and 10 Mm cp for 90 min to circumvent problems arising from the contamination and degradation of triphosphate nucleotide solutions.
The pool of G418-resistant clones was tested for its functional IP3 response to several nucleotides, according to the method described above. The cells were challenged by various nucleotides at a concentration of 100 μM for 30 s: ATP, ADP, UTP, UDP, ITP, IDP, TDP.

As a reminder, the IC50 is the concentration at which inhibition is half-maximal.

`CNc1ncnc2c1ncn2[C@H]1C[C@H](OP(=O)(O)O)[C@@H](COP(=O)(O)O)O1` [MRS-2179]: the half-inhibitory concentration (IC50) against human P2Y13 (GPR86) was greater than 100 µM.
As for `Cc1nc(N=Nc2ccc(S(=O)(=O)O)cc2S(=O)(=O)O)c(COP(=O)(O)O)c(C=O)c1O` [PPADS], it took 11.7 ± 0.9 µM to reach half-maximal inhibition against human P2Y13 (GPR86) (IC50).
`Cc1ccc(C(=O)Nc2ccc(S(=O)(=O)O)c3cc(S(=O)(=O)O)cc(S(=O)(=O)O)c23)cc1NC(=O)c1cccc(NC(=O)Nc2cccc(C(=O)Nc3cc(C(=O)Nc4ccc(S(=O)(=O)O)c5cc(S(=O)(=O)O)cc(S(=O)(=O)O)c45)ccc3C)c2)c1` [Suramine] displayed an IC50 at human P2Y13 (GPR86) of 2.3 ± 0.4 µM.
In the case of `NCCc1c[nH]cn1` [histamine], in assay [1], the IP3 response result is recorded as “strong IP3 response”.
In turn, Reactive Blue 2 showed an IC50 against human P2Y13 (GPR86) of 1.9 ± 0.1 µM.
